3 compounds from patent EP0686394A1, “Use of N-[[5-(naphthales-1-yl)-1,3-dioxan-2-yl]alkyl]acetamide derivatives for the preparation of medicaments for use in the treatment of neurodegenerative disorders” (SYNTHELABO, priority 1994, dated 1995) can be followed below.

Read-outs that look alike come from different tables or passages of the source.

Experiment [1] relates to ischémie cérébrale globale chez la souris. The experiment is described as follows: global cerebral ischemia test in mice (cardiac arrest induced by intravenous magnesium chloride; survival time). In kind it is in vivo. The settings on record: Mus musculus, read-out: dose efficace 3 secondes (DE3sec). An excerpt:
Ainsi les composés utilisables selon l'invention ont été soumis au test de l'ischémie cérébrale globale chez la souris. L'ischémie est due à un arrêt cardiaque induit par une injection intraveineuse rapide de chlorure de magnésium. Dans ce test on mesure le "temps de survie", c'est-à-dire l'intervalle entre le moment de l'injection de chlorure de magnésium et le dernier mouvement respiratoire observable de chaque souris. Ce dernier mouvement est considéré comme l'indice ultime d'une fonction du système nerveux central. L'arrêt respiratoire apparaît approximativement 21 secondes après l'injection de chlorure de magnésium. Des souris mâles (SWISS OF₁ IFFA CREDO) sont étudiées par groupes de 10. Elles sont nourries et abreuvées ad libitum avant les essais. Le temps de survie est mesuré 10 minutes après l'administration intrapéritonéale ou 5 minutes après l'administration intraveineuse dans la veine caudale, des composés de formule (I). Les résultats sont donnés sous la forme de la différence entre le temps de survie mesuré dans un groupe de 10 souris ayant reçu le composé et le temps de survie mesuré dans un groupe de 10 souris ayant reçu le liquide véhicule. Les rapports entre le temps de survie et la dose du composé sont enregistrés graphiquement selon une courbe semilogarithmique. Cette courbe permet le calcul de la "dose efficace 3 secondes" (DE3sec), c'est-à-dire la dose (en mg/kg) qui produit une augmentation de 3 secondes du temps de survie par rapport au groupe témoin de 10 souris traitées par le véhicule. Une augmentation de 3 secondes du temps de survie est à la fois significative statistiquement et reproductible. A titre d'exemple, après injection par voie intrapéritonéale, la DE3sec du trans-N-[3-[5-(6-méthoxynaphtalén-1-yl)-1,3-dioxan-2-yl]propyl]acétamide dans ce test est de 11,4 mg/kg, la DE3sec du cis-N-[3-[5-(6-méthoxynaphtalén-1-yl)-1,3-dioxan-2-yl]propyl]acétamide dans ce test est de 6,1 mg/kg et la DE3sec du trans-N-[3-[5-[6-(cyclopropylméthoxy)naphtalén-1-yl]-1,3-dioxan-2-yl]propyl]acétamide dans ce test est de 6,1 mg/kg. Par voie intraveineuse, après solubilisation dans une solution de 2-hydroxypropyl-β-cyclodextrine, la DE3sec du trans-N-[3-[5-(6-méthoxynaphtalén-1-yl)-1,3-dioxan-2-yl]propyl]acétamide dans ce test est de 2,25 mg/kg.

In experiment [2] the test system is ischémie focale permanente par occlusion intraluminale de l'artère cérébrale moyenne chez le rat. In words: permanent focal ischemia model by intraluminal occlusion of the middle cerebral artery in the rat (infarct volume). In kind it is in vivo. The settings on record: 1 mg/kg intraperitoneal, given 10 minutes, 2 h 30 and 5 h after occlusion; infarct volume evaluated 24 h after occlusion. An excerpt:
L'activité neuroprotectrice des composés de formule (I) a été également démontrée dans un modèle d'ischémie focale permanente par occlusion intraluminale de l'artère cérébrale moyenne chez le rat, selon une méthode analogue à celle décrite dans Stroke, 20, 84-91 (1989). Sous anesthésie au méthohexital sodique, on ligature l'artère ptérygopalatine, l'artère carotidienne commune et l'artère carotidienne externe gauche; on introduit un fil de nylon dans l'artère carotidienne interne sur une longueur d'environ 18 mm correspondant à la distance qui sépare la naissance de l'artère carotidienne interne de celle de l'artère cérébrale moyenne. Les composés sont administrés 10 minutes, 2 heures 30 et 5 heures après l'occlusion, aux doses de 0,3; 1; 3 et 10 mg/kg par voie intrapéritonéale. 24 heures après l'occlusion de l'artère cérébrale moyenne, on sacrifie les animaux et on prélève le cerveau. On évalue le volume de l'infarctus cérébral à partir de la mesure de la surface de la nécrose sur 6 coupes coronales colorées par le chlorure de 2,3,5-triphényltétrazolium. A titre d'exemple le trans-N-[3-[5-(6-méthoxynaphtalén-1-yl)-1,3-dioxan-2-yl]propyl]acétamide réduit le volume de l'infarctus cérébral d'environ 30% à la dose de 1 mg/kg.

Where [3] appears, read: ip, 10 min, intraperitoneal injection, survival time measured 10 minutes after administration, dose giving a 3 second increase of survival time vs vehicle group.

Regarding `COc1ccc2c(cccc2[C@H]2CO[C@@H](CCCNC(C)=O)OC2)c1` [cis-N-[3-[5-(6-méthoxynaphtalén-1-yl)-1,3-dioxan-2-yl]propyl]acétamide], the ED (3 s increase of survival time) in experiment [1] (setting [3]) came out at 6.1 mg/kg.

Take `COc1ccc2c(cccc2[C@H]2CO[C@H](CCCNC(C)=O)OC2)c1` [trans-N-[3-[5-(6-méthoxynaphtalén-1-yl)-1,3-dioxan-2-yl]propyl]acétamide]: in experiment [2], the “réduit le volume de l'infarctus cérébral” value was about 30%. Further, the ED (3 s increase of survival time) in experiment [1] (5 min, intravenous route, solubilised in 2-hydroxypropyl-β-cyclodextrine solution, survival time measured 5 minutes after administration) came to 2.25 mg/kg; in experiment [1] (setting [3]), 11.4 mg/kg.

For the compound `CC(=O)NCCC[C@H]1OC[C@H](c2cccc3cc(OCC4CC4)ccc32)CO1` [trans-N-[3-[5-[6-(cyclopropylméthoxy)naphtalén-1-yl]-1,3-dioxan-2-yl]propyl]acétamide], the ED (3 s increase of survival time) in experiment [1] (setting [3]) came to 6.1 mg/kg.
